Results taken from PMC8963254, “Effects of Lysine N-ζ-Methylation in Ultrashort Tetrabasic Lipopeptides (UTBLPs) on the Potentiation of Rifampicin, Novobiocin, and Niclosamide in Gram-Negative Bacteria” (Antibiotics, 2022).
In brackets after ≈: the same amount, converted by molar mass. Where two headings read alike, the source gives them in different places. Non-standard residues stand in square brackets, D forms with d. Residues, ends and D or L forms follow the SMILES beside them. *: point of attachment. Lys(Me2) = CN(C)CCCC[C@H](N)C(=O)O; Octanoyl = CCCCCCCC(=O)*

Tests used:
[1] = tested on: A. baumannii ATCC 17978; assay type: cell-based, Acinetobacter baumannii; conditions: ATCC 17978, 18 h
Description: (§1) The in vitro antibacterial activity of the UTBLPs was assessed against wild-type and clinically isolated bacterial strains. To obtain the MIC of the compounds, the microbroth dilution susceptibility assay was performed according to the Clinical and Laboratory Standards Institute (CLSI, Wayne, PA, USA) guidelines and as previously described. Briefly, the compounds at varying concentrations were incubated with bacterial inoculum (5 × 10^5 CFU/mL final concentration) at 37 °C for 18 h. Growth in the form of turbidity was confirmed using an EMax Plus microplate reader (Molecular Devices, San Jose, CA, USA) at 590 nm.

[2] = tested on: E. faecalis ATCC 29212; assay type: cell-based, Enterococcus faecalis; conditions: ATCC 29212, 18 h
Description: as §1

[3] = tested on: P. aeruginosa PA259-96196; experiment: microbe, parasite or virus in culture; assay type: cell-based, Pseudomonas aeruginosa; conditions: PA259-96196, 18 h
How it was run: (§2)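 Turbidity at 590 nm defined growth, from which the MIC was taken. Cultures at a final density of 5 × 10^5 CFU/mL were exposed to a range of compound levels at 37 °C for 18 h in a CLSI-based microdilution format.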

[4] = tested on: P. aeruginosa PA262-101856; experiment: microbe, parasite or virus in culture; assay type: cell-based, Pseudomonas aeruginosa; conditions: PA262-101856, 18 h
How it was run: as §2

[5] = tested on: S. aureus ATCC 29213; assay type: cell-based, Staphylococcus aureus; conditions: ATCC 29213, 18 h
Description: as §1

[6] = tested on: MRSA ATCC 33592; assay type: cell-based, Staphylococcus aureus; conditions: ATCC 33592, 18 h
Description: as §1

[7] = tested on: E. coli ATCC 25922; assay type: cell-based, Escherichia coli; conditions: ATCC 25922, 18 h
Description: as §1

[8] = tested on: E. coli 94474; experiment: microbe, parasite or virus in culture; assay type: cell-based, Escherichia coli; conditions: 94474, 18 h
How it was run: as §2

[9] = tested on: E. coli 94393; experiment: microbe, parasite or virus in culture; assay type: cell-based, Escherichia coli; conditions: 94393, 18 h
How it was run: as §2

[10] = tested on: MRSE 61589; assay type: cell-based, Staphylococcus epidermidis
How it was run: (§3)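 Values derive from a two-agent checkerboard with an 18 h, 37 °C incubation. FICI cut-offs: ≤0.5 synergy, 0.5–4 additive, >4 antagonism.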

[11] = tested on: MSSE 81388; assay type: cell-based, Staphylococcus epidermidis
How it was run: as §3

[12] = tested on: P. aeruginosa PA259-96196; assay type: cell-based, Pseudomonas aeruginosa; conditions: for MICUTBLP: UTBLP alone
How it was run: as §3

[13] = tested on: P. aeruginosa PAO1; assay type: cell-based, Pseudomonas aeruginosa; conditions: for MICUTBLP: UTBLP alone
How it was run: as §3

[14] = tested on: P. aeruginosa PA262-101856; assay type: cell-based, Pseudomonas aeruginosa; conditions: for MICUTBLP: UTBLP alone
How it was run: as §3

[15] = tested on: MRSE 61589; assay type: cell-based, Staphylococcus epidermidis; conditions: 61589, 18 h
Description: as §1

[16] = tested on: MSSE 81388; assay type: cell-based, Staphylococcus epidermidis; conditions: 18 h
Description: as §1

[17] = tested on: E. cloacae 118564; assay type: cell-based, Enterobacter cloacae; conditions: for MICUTBLP: UTBLP alone
How it was run: as §3

[18] = tested on: E. coli 94474; assay type: cell-based, Escherichia coli; conditions: for MICUTBLP: UTBLP alone
How it was run: as §3

[19] = tested on: P. aeruginosa PAO1; assay type: cell-based, Pseudomonas aeruginosa; conditions: PAO1, 18 h
Description: as §1

[20] = tested on: A. baumannii AB027; experiment: microbe, parasite or virus in culture; assay type: cell-based, Acinetobacter baumannii; conditions: AB027, 18 h
How it was run: as §2

[21] = tested on: A. baumannii AB92247; experiment: microbe, parasite or virus in culture; assay type: cell-based, Acinetobacter baumannii; conditions: AB92247, 18 h
How it was run: as §2

[22] = tested on: E. faecalis ATCC 29212; assay type: cell-based, Enterococcus faecalis
How it was run: as §3

[23] = UTBLP alone, plate with chloramphenicol
[24] = UTBLP in combination with chloramphenicol
[25] = chloramphenicol in combination with the UTBLP
[26] = UTBLP in combination with novobiocin
[27] = UTBLP in combination with rifampicin
[28] = novobiocin in combination with the UTBLP
[29] = rifampicin in combination with the UTBLP

MIC [1]: 128 µg/mL (≈ 125 µM)
MIC [2]: 64 µg/mL (≈ 62.6 µM)
MIC [3]: > 128 µg/mL
MIC [4]: > 128 µg/mL
MIC [5]: >128 µg/mL
MIC [6]: >128 µg/mL
MIC [7]: 64 µg/mL (≈ 62.6 µM)
MIC [8]: 128 µg/mL (≈ 125 µM)
MIC [9]: 64 µg/mL (≈ 62.6 µM)
MICUTBLP [10, 23]: 32 µg/mL
MICUTBLP [MICcombo] [10, 24]: 0.25 µg/mL
MICchloramphenicol [MICcombo] [10, 25]: 8 µg/mL
MICUTBLP [11, 23]: 32 µg/mL
MICUTBLP [MICcombo] [11, 24]: 0.25 µg/mL
MICchloramphenicol [MICcombo] [11, 25]: 4 µg/mL
MICUTBLP ([12]; plate with novobiocin): > 128 µg/mL
MICUTBLP ([12]; plate with rifampicin): > 128 µg/mL
MICUTBLP [MICcombo] [12, 26]: 16 µg/mL
MICUTBLP [MICcombo] [12, 27]: 16 µg/mL
MICantibiotic [MICcombo] [12, 28]: 512 µg/mL
MICantibiotic [MICcombo] [12, 29]: 8 µg/mL
MICUTBLP ([13]; plate with chloramphenicol): > 128 µg/mL
MICUTBLP ([13]; plate with niclosamide): > 128 µg/mL
MICUTBLP ([13]; plate with novobiocin): > 128 µg/mL
MICUTBLP ([13]; plate with rifampicin): > 128 µg/mL
MICUTBLP [MICcombo] [13, 24]: 8 µg/mL
MICUTBLP [MICcombo] ([13]; UTBLP in combination with niclosamide): 0.25 µg/mL
MICUTBLP [MICcombo] [13, 26]: 16 µg/mL
MICUTBLP [MICcombo] [13, 27]: 16 µg/mL
MICantibiotic [MICcombo] [13, 25]: 8 µg/mL
MICantibiotic [MICcombo] ([13]; niclosamide in combination with the UTBLP): 1024 µg/mL
MICantibiotic [MICcombo] [13, 28]: 128 µg/mL
MICantibiotic [MICcombo] [13, 29]: 4 µg/mL
MICUTBLP ([14]; plate with novobiocin): > 128 µg/mL
MICUTBLP ([14]; plate with rifampicin): > 128 µg/mL
MICUTBLP [MICcombo] [14, 26]: 16 µg/mL
MICUTBLP [MICcombo] [14, 27]: 16 µg/mL
MICantibiotic [MICcombo] [14, 28]: 512 µg/mL
MICantibiotic [MICcombo] [14, 29]: 512 µg/mL
MIC [15]: 32 µg/mL (≈ 31.3 µM)
MIC [16]: 32 µg/mL (≈ 31.3 µM)
MICUTBLP ([17]; plate with novobiocin): > 128 µg/mL
MICUTBLP ([17]; plate with rifampicin): > 128 µg/mL
MICUTBLP [MICcombo] [17, 26]: 16 µg/mL
MICUTBLP [MICcombo] [17, 27]: 16 µg/mL
MICantibiotic [MICcombo] [17, 28]: 4 µg/mL
MICantibiotic [MICcombo] [17, 29]: 1 µg/mL
MICUTBLP ([18]; plate with novobiocin): 128 µg/mL
MICUTBLP ([18]; plate with rifampicin): 128 µg/mL
MICUTBLP [MICcombo] [18, 26]: 8 µg/mL
MICUTBLP [MICcombo] [18, 27]: 16 µg/mL
MICantibiotic [MICcombo] [18, 28]: 16 µg/mL
MICantibiotic [MICcombo] [18, 29]: 1 µg/mL
MIC [19]: >128 µg/mL
MIC [20]: 128 µg/mL (≈ 125 µM)
MIC [21]: 32 µg/mL (≈ 31.3 µM)
MICUTBLP [22, 23]: 64 µg/mL
MICUTBLP [MICcombo] [22, 24]: 8 µg/mL
MICchloramphenicol [MICcombo] [22, 25]: 4 µg/mL
Compound: CCCCCCCC(=O)NCCCC[C@H](NC(=O)CCCCCCC)C(=O)N[C@@H](CCCCN(C)C)C(=O)N[C@@H](CCCCN(C)C)C(=O)N[C@@H](CCCCN(C)C)C(=O)N[C@@H](CCCCN(C)C)C(N)=O [UTBLP 7] (Octanoyl-K(Octanoyl)[Lys(Me2)][Lys(Me2)][Lys(Me2)][Lys(Me2)]-NH2)
Interpretation ([10]; UTBLP + chloramphenicol): Additive (0.5 < x ≤ 4 is additive)
Interpretation ([11]; UTBLP + chloramphenicol): Additive (0.5 < x ≤ 4 is additive)
Interpretation ([12]; UTBLP + novobiocin): Additive (0.5 < x ≤ 4 is additive)
Interpretation ([12]; UTBLP + rifampicin): Additive (0.5 < x ≤ 4 is additive)
Interpretation ([13]; UTBLP + chloramphenicol): Additive (0.5 < x ≤ 4 is additive)
Interpretation ([13]; UTBLP + niclosamide): Additive (0.5 < x ≤ 4 is additive)
Interpretation ([13]; UTBLP + novobiocin): Synergy (FICI ≤ 0.5 is synergistic)
Interpretation ([13]; UTBLP + rifampicin): Additive (0.5 < x ≤ 4 is additive)
Interpretation ([14]; UTBLP + novobiocin): Additive (0.5 < x ≤ 4 is additive)
Interpretation ([14]; UTBLP + rifampicin): Additive (0.5 < x ≤ 4 is additive)
Interpretation ([17]; UTBLP + novobiocin): Synergy (FICI ≤ 0.5 is synergistic)
Interpretation ([17]; UTBLP + rifampicin): Synergy (FICI ≤ 0.5 is synergistic)
Interpretation ([18]; UTBLP + novobiocin): Synergy (FICI ≤ 0.5 is synergistic)
Interpretation ([18]; UTBLP + rifampicin): Synergy (FICI ≤ 0.5 is synergistic)
Interpretation ([22]; UTBLP + chloramphenicol): Additive (0.5 < x ≤ 4 is additive)
